Assay results from patent US11214556B1, “Method of treating colorectal cancer” (King Abdulaziz University, priority 2019, dated 2022).
“Also recorded” adds a separate entry of the source.

Columns and labels:
[1] = tested on: HCT-116 cells; test: Nuclear fragmentation by DAPI staining; format: cell-based, human; details: 32 μM (IC50 concentration), 48 hours
Description: Several assays were performed to determine the apoptotic effect of the early lead MOS-1512 as well as the potent derivative MOS-4112 on HCT-116 cells. […] See Drutovic, D.; Chripkova, M.; Pilatova, M.; Kruzliak, P.; Perjesi, P.; Sarissky, M.; Lupi, M.; Damia, G.; Broggini, M.; Mojzis, J., Benzylidenetetralones, cyclic chalcone analogues, induce cell cycle arrest and apoptosis in HCT116 colorectal cancer cells. Tumour Biol 2014, 35 (10), 9967-75, incorporated herein by reference in its entirety.
Cells were cultured on sterile 22 mm^2 cover slips (Harvard Apparatus, MA, USA) in sterile six well plates at a density of 2×10^5 cells/well. […] The fixed and permeabilized cells nuclei were denatured with 2 N HCl (300 μl) for 10 min, washed three times more, and treated with 0.1 μg/ml 4′,6′-diamidino-2-phenylindole, dihydrochloride (DAPI) (Sigma-Aldrich, St. Louis, Mo., USA) (1:1000) in (phosphate-buffered saline-Tween 20 (PBST) for 1 hr. After staining, the cells were washed twice with PBS. The cover slips were then mounted on a glass slide with anti-fade mounting medium and viewed with an epifluorescence microscope, Leica, DM 5500 B (Leica, Buffalo Grove, Ill., USA) at a magnification of 60×, and data were captured digitally and quantified using the microscope provided software.

[2] = tested on: HCT-116 cells; test: SRB cytotoxicity assay, HCT-116; format: cell-based, human; details: for IC50: Homo sapiens, HCT-116, SRB assay, 72 h exposure, ± SEM
Description: Compounds in this study were tested against colorectal cancer cell line HCT-116, using sulforhodamine-B (SRB) assay. See Skehan, P.; Storeng, R.; Scudiero, D.; Monks, A.; McMahon, J.; Vistica, D.; Warren, J. T.; Bokesch, H.; Kenney, S.; Boyd, M. R., New colorimetric cytotoxicity assay for anticancer-drug screening. J Natl Cancer Inst 1990, 82 (13), 1107-12, incorporated herein by reference in its entirety. […] However, it was clear that compounds bearing hydrophobic aliphatic groups such as MOS-1505 and MOS-1512 are clearly favored in providing anticancer activities. […] The N-aryl substituents were less advantageous in both potency and solubility.
(§1) Different cell lines were originally purchased from American type culture collection (ATCC, Wesel, Germany) and grown in the tissue culture lab of the Egyptian company for production of vaccines, sera and drugs (Vacsera, Giza, Egypt). The cells were transferred to our laboratory and maintained in the appropriate media as following. HCT-116, CACO-2, and HT-29 (human colon cancer cell lines) were maintained in Roswell Park Memorial Institute medium (RPMI1640) (Invitrogen, Carlsbad, Calif.). The mouse skin fibroblasts (C-166) and Baby Hamster Kidney fibroblasts (BHK) were grown in Dulbecco Modified Eagle's medium (DMEM). Both media were supplemented with 1% of […] of streptomycin, 100 units/mL of penicillin and 10% of heat-inactivated fetal bovine serum (Invitrogen, Carlsbad, Calif.) in a humidified, 5% (v/v) CO2 atmosphere at 37° C.
(§2) The sulforhodamine B (SRB) assays were performed according to Skehan, P.; Storeng, R.; Scudiero, D.; Monks, A.; McMahon, J.; Vistica, D.; Warren, J. T.; Bokesch, H.; Kenney, S.; Boyd, M. R., New colorimetric cytotoxicity assay for anticancer-drug screening. J Natl Cancer Inst 1990, 82 (13), 1107-12, incorporated herein by reference in its entirety. Briefly, exponentially growing cells were trypsinized, counted and seeded at the appropriate densities (5000 cells/100 μL/well) into 96-well microtiter plates. Cells were incubated in a humidified atmosphere at 37° C. for 24 h. Then, the cells were exposed to different compounds at the desired concentrations, (0.01, 0.1, 1, 10, and 100 μM) or to 1% dimethyl sulfoxide (DMSO) for 72 h. At the end of the treatment period, the media were removed, and the cells were fixed with 10% trichloroacetic acid at 4° C. for 1 hr. Following, the cells were washed with tap water four times and incubated with SRB 0.4% for 30 min. Excess dye was removed by washing repeatedly with 1% (vol/vol) acetic acid. The protein-bound dye was dissolved in 10 mM Tris base solution for (optical density) OD determination at 510 nm using a SpectraMax plus Microplate Reader (Molecular Devices, CA). Cell viability was expressed relative to the untreated control cells.

[3] = tested on: HT-29 cells; test: SRB cytotoxicity assay, HT-29; format: cell-based, human; details: Homo sapiens, HT-29, monolayer, 72 h exposure, ± SEM
Text: (§3) Based on the favorable pharmacologic and physicochemical properties of MOS-1512, it was selected as a new lead for the second subset of compounds (MOS-1812 to MOS-5112). The compounds in this series contained variable groups at R^1 and R^2 that were all tested against the three cancer cell lines (HCT-116, Caco-2 and HT-29).
as §1, §2

[4] = Solubility profile; format: physicochemical; details: stated in words together with C log P
[5] = Acute oral toxicity (LD50), OECD guideline 423; format: in vivo; details: both sexes, Swiss albino, mouse, in vivo, po
Text: (§4) Since compounds with electrophilic properties, e.g., MA are usually involved in a variety of toxic effects on mammalians, the general acute toxicity of 1512, 3712 and 4112 was investigated by determining the in vivo lethal dose (LD50) according to the Globally Harmonized Classification System (GHS) and following the Organization for Economic Cooperation and Development (OECD) guideline 423 (modified, adopted Mar. 23, 2006). As observed in the cellular assay, the compound safety was confirmed, as the LD50 for all compounds were between 2000-5000 mg/kg (Category 5). See Spielmann, H.; Genschow, E.; Liebsch, M.; Halle, W., Determination of the starting dose for acute oral toxicity (LD50) testing in the up and down procedure (UDP) from cytotoxicity data. ATLA 1999, 27 (6), 957-966, incorporated herein by reference in its entirety.
(§5) The experiment was conducted on 12 healthy Swiss albino mice (males and females) weighing 22-27 g and aged 8 to 10 weeks obtained from the Animal Station, Pharmacology Dept, Faculty of Pharmacy, King Abdulaziz University, Jeddah. See Shoieb, S. M.; Esmat, A.; Khalifa, A. E.; Abdel-Naim, A. B., Chrysin attenuates testosterone-induced benign prostate hyperplasia in rats. Food and Chemical Toxicology 2018, 111, 650-659, incorporated herein by reference in its entirety. All animals were kept at the regulated temperature (average 23° C.), air quality (Central air conditioning) and light (12-h light/dark cycles). Animals were provided free access to food pellets ad libitum and water. The experimental procedure was approved by the Research Ethics Committee, Faculty of Pharmacy, King Abdulaziz University prior to starting the laboratory work. Animals were humanely treated according to international and scientific principles. Changes other than vitality of the animals such as behavioral and food consumption habits were not observed in this study.
(§6) The compounds 1512, 3712 and 4112 of purity 95% or more (LC/MS) were prepared for this study as 10% suspension in water containing 0.5% tween 80.
(§7) The animals were distributed randomly into four groups (3 mice at each group). […] The second group received an oral dose of 2000 mg/Kg of the drug and observed after 24 h to count the deceased animals. According to the Guideline 423, when all animals were found alive, the same test was repeated (dose 2000 mg/kg) were given to the third group (3 animals) and observed for 24 h. All animals survived and therefore, a dose of 5000 mg/kg were administered to the fourth and final group.

[6] = tested on: Swiss albino mice; test: Acute oral toxicity (LD50), OECD guideline 423; format: in vivo; details: both, Swiss albino, mouse, in vivo, po, 24 h
Text: as §4, §5, §6, §7

[7] = tested on: CACO-2 cells; test: SRB cytotoxicity assay, CACO-2; format: cell-based, human; details: Homo sapiens, Caco-2, 72 h exposure, ± SEM
Text: as §3, §1, §2

[8] = tested on: C-166 mouse skin fibroblasts; test: Selectivity versus normal C-166 fibroblasts; format: cell-based; details: HCT-116, Caco-2 and HT-29 versus C-166
Text: FIG. 3A is a graph illustrating the dose-response curve of compound 1512 on HCT-116 cell lines and C-166 cell line;
See El-Araby, M. E.; Omar, A. M.; Khayat, M. T.; Assiri, H. A.; Al-Abd, A. M., Molecular Mimics of Classic P-Glycoprotein Inhibitors as Multidrug Resistance Suppressors and Their Synergistic Effect on Paclitaxel. PLoS One 2017, 12 (1), e0168938, incorporated herein by reference in its entirety.
Different cell lines were originally purchased from American type culture collection (ATCC, Wesel, Germany) and grown in the tissue culture lab of the Egyptian company for production of vaccines, sera and drugs (Vacsera, Giza, Egypt). The cells were transferred to our laboratory and maintained in the appropriate media as following. […]
The sulforhodamine B (SRB) assays were performed according to Skehan, P.; Storeng, R.; Scudiero, D.; Monks, A.; McMahon, J.; Vistica, D.; Warren, J. T.; Bokesch, H.; Kenney, S.; Boyd, M. R., New colorimetric cytotoxicity assay for anticancer-drug screening. […] Briefly, exponentially growing cells were trypsinized, counted and seeded at the appropriate densities (5000 cells/100 μL/well) into 96-well microtiter plates. […] The protein-bound dye was dissolved in 10 mM Tris base solution for (optical density) OD determination at 510 nm using a SpectraMax plus Microplate Reader (Molecular Devices, CA). […]

[9] = tested on: HT-29 colon cancer cell spheroids (cancer stem cells); test: Primary (1°) colonosphere formation assay; format: cell-based, human
Description: Compound 4112 and another potent compound 3712 were also evaluated for their ability to inhibit cancer stem cell proliferation using a primary (1°) colonosphere formation assay. In this assay, HT-29 colon cancer cells were grown in low adhesion plates to form spheres as previously described. See Patel, N. J.; Karuturi, R.; Al-Horani, R. A.; Baranwal, S.; Patel, J.; Desai, U. R.; Patel, B. B., Synthetic, non-saccharide, glycosaminoglycan mimetics selectively target colon cancer stem cells. ACS Chem Biol 2014, 9 (8), 1826-33, incorporated herein by reference in its entirety. Wells treated with the inventive compounds were compared to vehicle treated cells for primary sphere growth inhibition after 5 days of incubation. […] Of note, monolayer growth conditions are ideally suited for examining cellular proliferation, whereas spheroid growth conditions examine cancer stem cell growth and self-renewal properties.
For primary sphere formation, cells were plated in nontreated, low adhesion, 96 wells plate at the concentration of 100 cells/100 μL/well in stem cell media (SCM) that consisted of DMEM:F12:AA (Gibco), supplemented with 1×B27 (Gibco), 20 ng/mL epidermal growth factor, and 10 ng/mL fibroblast growth factor (Sigma). After 4 h of incubation, vehicle (control) or 3712 and 4112 at the desired concentrations were added to each well (at least in triplicates for each sample). On day five, numbers of spheres ranging from […] in diameter were counted using phase contrast microscope and percent inhibition was calculated compared to control.

[10] = tested on: CRC cell lines (HCT-116, Caco-2 and HT-29); test: Cytotoxic activities against CRC cell lines (statement over three lines); format: cell-based; details: Homo sapiens
Text: as §3, §1, §2

Structure (SMILES)	nuclear structure/morphology, DAPI staining [1]	IC50 [2] [µM]	cancer cell resistance (R-value) ([2]; dose-response curve, FIG. 3A) [%]	IC50 [3] [µM]	solubility [4]	LD50 at 24 h [5] [mg/kg]	GHS acute toxicity category [6]	IC50 [7] [µM]	selectivity in killing cancer cells versus normal cells [8]	IC50 ([9]; Homo sapiens, 120 h, HT-29 spheres, 5 days of incubation) [µM]	inhibition of colon cancer spheroids formation ([9]; spheroids >50 μm, 5 days)	IC50 [10] [µM]
CCCNC(=O)/C(=C/c1ccccc1)NC(=O)/C=C/c1ccccc1 [Compound 1512, (Z)-2-[(E)-cinnamamido]-3-phenyl-N-propylacrylamide]	very strong blue fluorescence; also recorded: nuclear condensation and fragmentation	32 ± 2.6	8.2	35.5 ± 1.7	better solubility profile	2000 to 5000	Category 5	38 ± 0.87	high selectivity	–	–	–
CCCNC(=O)/C(=C/c1c[nH]c2ccccc12)NC(=O)C=Cc1ccccc1 [Compound 3712, (Z)-2-cinnamamido-3-(1H-indol-3-yl)-N-propylacrylamide]	–	1.65 ± 0.05	–	2.36 ± 0.04	–	2000 to 5000	Category 5	2.1 ± 0.03	–	21.1 ± 1.3	dose-dependent inhibition	< 5
